Laboratory results taken from ChEMBL document CHEMBL6182906, “Discovery, total synthesis, and biological evaluation of tyrcinnamins as antibacterial agents and tyrosinase activators” (Eur J Med Chem, 2025).
Values after ≈ are worked out from the molar mass of the structure shown. Active and inactive are the calls of the source. No cut-off for these calls is given here.

Tests used:
Pseudomonas aeruginosa = assay: Antibacterial activity against Pseudomonas aeruginosa ATCC27853 assessed as bacterial growth inhibition up to 100 uM incubated for 16 hrs by broth microdilution assay; type: functional, organism-based
Bacillus subtilis = assay: Antibacterial activity against Bacillus subtilis ATCC6633 assessed as bacterial growth inhibition incubated for 16 hrs by broth microdilution assay; type: functional
[1] = target: T1, Mushroom tyrosinase (Agaricus bisporus) (UniProt O42713+Q00024+C7FF04+C7FF05); assay: Inhibition of mushroom tyrosinase using L-DOPA as substrate up to 1 mM preincubated for 10 mins followed by substrate addition measured after 20 mins by absorbance based assay; type: protein assay; conditions: time 30.0 min
[2] = target: T1, Mushroom tyrosinase (Agaricus bisporus); assay: Activation of mushroom tyrosinase using L-DOPA as substrate at 1 mM preincubated for 10 mins followed by substrate addition measured after 20 mins by absorbance based assay; type: protein assay; conditions: filed as activator, time 30.0 min
Escherichia coli = assay: Antibacterial activity against Escherichia coli ATCC8739 assessed as bacterial growth inhibition up to 100 uM incubated for 16 hrs by broth microdilution assay; type: functional, organism-based
Staphylococcus aureus [3] = assay: Antibacterial activity against Staphylococcus aureus ATCC6538 assessed as bacterial growth inhibition incubated for 16 hrs by broth microdilution assay; type: functional
Enterococcus faecalis = assay: Antibacterial activity against Enterococcus faecalis assessed as bacterial growth inhibition incubated for 16 hrs by broth microdilution assay; type: functional
Staphylococcus aureus [4] = assay: Antibacterial activity against methicillin-resistant Staphylococcus aureus assessed as bacterial growth inhibition incubated for 16 hrs by broth microdilution assay; type: functional
Staphylococcus aureus [5] = assay: Antibacterial activity against Staphylococcus aureus ATCC29213 assessed as bacterial growth inhibition incubated for 16 hrs by broth microdilution assay; type: functional
Enterococcus faecium = assay: Antibacterial activity against Enterococcus faecium assessed as bacterial growth inhibition incubated for 16 hrs by broth microdilution assay; type: functional
L02 [6] = assay: Cytotoxicity against human LO2 cells at 100 uM incubated for 72 hrs by CCK8 assay; type: toxicity, cell-based; conditions: l02, 72 h
[7] = Hemolytic activity against chicken erythrocytes at 50 uM incubated for 1 hr by absorbance based assay; type: toxicity, cell-based, Gallus gallus, Erythrocyte; conditions: read-out: Activity
HCT-116 = assay: Cytotoxicity against human HCT-116 cells at 100 uM incubated for 72 hrs by CCK8 assay; type: toxicity, cell-based; conditions: hct-116, 72 h
HaCaT = assay: Cytotoxicity against human HaCaT cells at 100 uM incubated for 72 hrs by CCK8 assay; type: toxicity, cell-based
L02 [8] = assay: Induction of apoptosis in human LO2 cells assessed as viable cells at 50 uM incubated for 48 hrs by Annexin V-FITC/PI staining based flow cytometry (reference value: 98.0 %); type: functional; conditions: read-out: Activity
L02 [9] = assay: Induction of apoptosis in human LO2 cells assessed as late apoptotic cells at 50 uM incubated for 48 hrs by Annexin V-FITC/PI staining based flow cytometry (reference value: 0.044 %); type: functional
L02 [10] = assay: Induction of apoptosis in human LO2 cells assessed as late apoptotic cells at 12.5 uM incubated for 48 hrs by Annexin V-FITC/PI staining based flow cytometry (reference value: 0.044 %); type: functional
L02 [11] = assay: Induction of apoptosis in human LO2 cells assessed as necrotic cells at 12.5 uM incubated for 48 hrs by Annexin V-FITC/PI staining based flow cytometry (reference value: 1.12 %); type: functional
[12] = target: T1, Mushroom tyrosinase (Agaricus bisporus); assay: Competitive binding affinity to mushroom tyrosinase at 0.5 to 1 mM in presence of 0.25 mM L-DOPA; type: protein assay; conditions: filed as activator, dose 0.5-1 mM
L02 [13] = assay: Induction of apoptosis in human LO2 cells assessed as viable cells at 12.5 uM incubated for 48 hrs by Annexin V-FITC/PI staining based flow cytometry (reference value: 98.0 %); type: functional; conditions: read-out: Activity
[14] = Hemolytic activity against chicken erythrocytes up to 100 uM incubated for 1 hr by absorbance based assay; type: toxicity, cell-based, Gallus gallus, Erythrocyte; conditions: read-out: Activity
L02 [15] = assay: Induction of apoptosis in human LO2 cells assessed as early apoptotic cells at 100 uM incubated for 48 hrs by Annexin V-FITC/PI staining based flow cytometry (reference value: 0.85 %); type: functional
L02 [16] = assay: Induction of apoptosis in human LO2 cells assessed as early apoptotic cells at 12.5 uM incubated for 48 hrs by Annexin V-FITC/PI staining based flow cytometry (reference value: 0.85 %); type: functional
L02 [17] = assay: Induction of apoptosis in human LO2 cells assessed as early apoptotic cells at 50 uM incubated for 48 hrs by Annexin V-FITC/PI staining based flow cytometry (reference value: 0.85 %); type: functional
L02 [18] = assay: Induction of apoptosis in human LO2 cells assessed as viable cells at 100 uM incubated for 48 hrs by Annexin V-FITC/PI staining based flow cytometry (reference value: 98.0 %); type: functional; conditions: read-out: Activity
L02 [19] = assay: Induction of apoptosis in human LO2 cells assessed as necrotic cells at 100 uM incubated for 48 hrs by Annexin V-FITC/PI staining based flow cytometry (reference value: 1.12 %); type: functional
[20] = tested on: Staphylococcus epidermidis; assay: Antibacterial activity against Staphylococcus epidermidis assessed as bacterial growth inhibition incubated for 16 hrs by broth microdilution assay; type: functional
L02 [21] = assay: Induction of apoptosis in human LO2 cells assessed as necrotic cells at 50 uM incubated for 48 hrs by Annexin V-FITC/PI staining based flow cytometry (reference value: 1.12 %); type: functional
[22] = target: T1, Mushroom tyrosinase (Agaricus bisporus); assay: Competitive binding affinity to mushroom tyrosinase at 0.1 mM in presence of 0.25 mM L-DOPA; type: protein assay
L02 [23] = assay: Induction of apoptosis in human LO2 cells assessed as late apoptotic cells at 100 uM incubated for 48 hrs by Annexin V-FITC/PI staining based flow cytometry (reference value: 0.044 %); type: functional
Staphylococcus aureus [24] = assay: Antibacterial activity against Staphylococcus aureus ATCC6538 assessed as bacterial growth inhibition at 100 uM incubated for 12 hrs by resazurin assay; type: functional, organism-based
Staphylococcus aureus [25] = assay: Antibacterial activity against Staphylococcus aureus ATCC6538 assessed as bacterial growth inhibition at 100 uM incubated for 12 hrs by spot assay; type: functional, organism-based

COC(=O)[C@H](Cc1ccc(O)cc1)NC(=O)/C=C/c1ccccc1C
inhibition (Pseudomonas aeruginosa): inactive
MIC (Bacillus subtilis): 100 µM (≈ 33.9 µg/mL)
inhibition [1]: inactive
Emax [2]: > 300%
inhibition (Escherichia coli): inactive
MIC (Staphylococcus aureus [3]): > 100 µM

CN[C@H](CC(C)C)C(=O)N[C@H]1C(=O)N[C@@H](CC(N)=O)C(=O)N[C@H]2C(=O)N[C@H]3C(=O)N[C@H](C(=O)N[C@H](C(=O)O)c4cc(O)cc(O)c4-c4cc3ccc4O)[C@H](O)c3ccc(c(Cl)c3)Oc3cc2cc(c3O[C@@H]2O[C@H](CO)[C@@H](O)[C@H](O)[C@H]2O[C@H]2C[C@](C)(N)[C@H](O)[C@H](C)O2)Oc2ccc(cc2Cl)[C@H]1O [VANCOMYCIN]
MIC (Enterococcus faecalis): 2.8 µM (≈ 4.06 µg/mL)
MIC (Staphylococcus aureus [4]): 2.8 µM (≈ 4.06 µg/mL)
MIC (Staphylococcus aureus [5]): 1.4 µM (≈ 2.03 µg/mL)
MIC (Enterococcus faecium): 2.8 µM (≈ 4.06 µg/mL)

CC1(C)S[C@@H]2[C@H](NC(=O)Cc3ccccc3)C(=O)N2[C@H]1C(=O)O [PENICILLIN G]
MIC (Bacillus subtilis): 10 µM (≈ 3.34 µg/mL)
MIC (Staphylococcus aureus [3]): 0.05 µM (≈ 0.0167 µg/mL)

CCC/C=C\c1ccccc1/C=C/C(=O)N[C@@H](Cc1c[nH]c2ccccc12)C(=O)OC
inhibition (Pseudomonas aeruginosa): inactive
MIC (Bacillus subtilis): > 100 µM
inhibition (Escherichia coli): inactive
MIC (Staphylococcus aureus [3]): > 100 µM

CCC/C=C\c1ccccc1/C=C/C(=O)N[C@H](Cc1ccc(O)cc1)C(=O)OC
inhibition (Pseudomonas aeruginosa): inactive
Activity (L02 [6]): Toxic
hemolysis at 1 h, 50 µM [7]: > 5%
Activity (HCT-116): Toxic
MIC (Bacillus subtilis): 12.5 µM (≈ 4.92 µg/mL)
inhibition [1]: inactive
Emax [2]: > 300%
Activity (HaCaT): Toxic
inhibition (Escherichia coli): inactive
MIC (Staphylococcus aureus [3]): 12.5 µM (≈ 4.92 µg/mL)

CCC/C=C\c1ccccc1/C=C/C(=O)N[C@@H](C)C(=O)OC
inhibition (Pseudomonas aeruginosa): inactive
MIC (Bacillus subtilis): 100 µM (≈ 30.1 µg/mL)
inhibition (Escherichia coli): inactive
MIC (Staphylococcus aureus [3]): > 100 µM

COC(=O)[C@H](Cc1ccc(O)cc1)NC(=O)/C=C/c1ccccc1Br
inhibition (Pseudomonas aeruginosa): inactive
MIC (Bacillus subtilis): 100 µM (≈ 40.4 µg/mL)
inhibition [1]: inactive
inhibition (Escherichia coli): inactive
MIC (Staphylococcus aureus [3]): 100 µM (≈ 40.4 µg/mL)

CCC/C=C\c1ccccc1/C=C/C(=O)N[C@@H](Cc1ccc(O)cc1)C(=O)OC
viability at 50 µM (L02 [8]): 97.9%
Activity (L02 [9]): 0.024%
Activity (L02 [10]): 0.041%
Activity (L02 [11]): 1.23%
inhibition (Pseudomonas aeruginosa): inactive
Activity (L02 [6]): Non-toxic
Activity [12]: Active
MIC (Enterococcus faecalis): 20 µM (≈ 7.87 µg/mL)
MIC (Staphylococcus aureus [4]): 20 µM (≈ 7.87 µg/mL)
Activity (HCT-116): Non-toxic
viability at 12.5 µM (L02 [13]): 98.5%
hemolysis at 1 h, up to 100 µM [14]: < 5%
MIC (Bacillus subtilis): 12.5 µM (≈ 4.92 µg/mL)
Activity (L02 [15]): 0.94%
Activity (L02 [16]): 0.2%
Activity (L02 [17]): 0.74%
viability at 100 µM (L02 [18]): 97.7%
Activity (L02 [19]): 1.34%
MIC [20]: > 40 µM
Activity (L02 [21]): 1.33%
Activity [22]: inactive
MIC (Staphylococcus aureus [5]): 20 µM (≈ 7.87 µg/mL)
inhibition [1]: inactive
Emax [2]: > 300%
MIC (Enterococcus faecium): 20 µM (≈ 7.87 µg/mL)
Activity (HaCaT): Non-toxic
inhibition (Escherichia coli): inactive
MIC (Staphylococcus aureus [3]): 12.5 µM (≈ 4.92 µg/mL)
Activity (L02 [23]): 0.034%

CCC/C=C\c1ccccc1/C=C/C(=O)O
inhibition (Pseudomonas aeruginosa): inactive
MIC (Bacillus subtilis): > 100 µM
inhibition (Escherichia coli): inactive
MIC (Staphylococcus aureus [3]): > 100 µM

CCC/C=C\c1ccccc1/C=C/C(=O)N[C@@H](Cc1ccccc1)C(=O)OC
inhibition (Pseudomonas aeruginosa): inactive
MIC (Bacillus subtilis): > 100 µM
inhibition (Escherichia coli): inactive
MIC (Staphylococcus aureus [3]): > 100 µM

COC(=O)[C@H](Cc1ccc(O)cc1)NC(=O)/C=C/c1ccccc1OC
inhibition (Pseudomonas aeruginosa): inactive
MIC (Bacillus subtilis): 100 µM (≈ 35.5 µg/mL)
inhibition [1]: Active
inhibition (Escherichia coli): inactive
MIC (Staphylococcus aureus [3]): 100 µM (≈ 35.5 µg/mL)

CCC/C=C\c1ccccc1/C=C/C(=O)N[C@@H](Cc1ccc(O)cc1)C(=O)O
inhibition (Staphylococcus aureus [24]): inactive
inhibition (Pseudomonas aeruginosa): inactive
MIC (Bacillus subtilis): > 100 µM
inhibition [1]: inactive
inhibition (Staphylococcus aureus [25]): inactive
inhibition (Escherichia coli): inactive
MIC (Staphylococcus aureus [3]): > 100 µM

COC(=O)[C@H](Cc1ccc(O)cc1)NC(=O)/C=C/c1ccccc1
inhibition (Pseudomonas aeruginosa): inactive
MIC (Bacillus subtilis): > 100 µM
inhibition [1]: inactive
inhibition (Escherichia coli): inactive
MIC (Staphylococcus aureus [3]): > 100 µM

COC(=O)[C@H](Cc1ccc(O)cc1)NC(=O)/C=C/c1ccccc1C(F)(F)F
inhibition (Pseudomonas aeruginosa): inactive
MIC (Bacillus subtilis): > 100 µM
inhibition [1]: inactive
inhibition (Escherichia coli): inactive
MIC (Staphylococcus aureus [3]): 100 µM (≈ 39.3 µg/mL)

COC(=O)[C@H](Cc1ccc(O)cc1)NC(=O)/C=C/c1ccccc1F
inhibition (Pseudomonas aeruginosa): inactive
MIC (Bacillus subtilis): 100 µM (≈ 34.3 µg/mL)
inhibition [1]: inactive
inhibition (Escherichia coli): inactive
MIC (Staphylococcus aureus [3]): > 100 µM

CCC/C=C\c1ccccc1/C=C/C(=O)N[C@H](Cc1ccc(O)cc1)C(=O)O
inhibition (Staphylococcus aureus [24]): inactive
inhibition (Pseudomonas aeruginosa): inactive
MIC (Bacillus subtilis): > 100 µM
inhibition [1]: inactive
inhibition (Staphylococcus aureus [25]): inactive
inhibition (Escherichia coli): inactive
MIC (Staphylococcus aureus [3]): > 100 µM
